Measurements reported in US7915292B2, “Antibacterial quinoline derivatives” (Janssen Pharmaceutica NV, priority 2005, dated 2011).
≈ marks a conversion by molar mass, not a printed value. Blank lines part the entries; values can stand above or below the compound they belong to.

How the values were obtained:
[1] = test system: Mycobacterium tuberculosis (strain H37RV); test: In-vitro method for testing compounds against M. tuberculosis (resazurin growth inhibition); type: cell-based; conditions: 7 days incubation
M. Smegmatis ATCC607 = test: In-vitro anti-bacterial activity against strain M. smegmatis ATCC607 (Alamar Blue growth inhibition); type: cell-based; conditions: 48 hours incubation; for IC50: Mycolicibacterium smegmatis, read-out: M. smegmatis pIC50 (converted)
Description: Serial five-fold dilutions (45 μl in 180 μl) were made directly in the microtiter plates from column 2 to 11 using a customised robot system (Zymark Corp., Hopkinton, Mass.). Pipette tips were changed after every 3 dilutions to minimize pipetting errors with high hydrophobic compounds. Untreated control samples with (column 1) and without (column 12) inoculum were included in each microtiter plate. Approximately 250 CFU per well of bacteria inoculum, in a volume of 100 μl in 2.8× Mueller-Hinton broth medium, was added to the rows […]. The same volume of broth medium without inoculum was added to column 12 in row A to H. The cultures were incubated at 37° C. for 48 hours in a humidified 5% CO2 atmosphere (incubator with open air valve and continuous ventilation). At the end of incubation, two days after inoculation, the bacterial growth was quantitated fluorometrically. Therefore Alamar Blue (10×) was added to all wells in a volume of 20 μl and plates were incubated for another 2 hours at […] The fluorescence was read in a computer-controlled fluorometer (Cytofluor, Biosearch) at an excitation wavelength of 530 nm and an emission wavelength of 590 nm (gain 30). The percentage growth inhibition achieved by the compounds was calculated according to standard methods and expressed as pIC50 values.

BSU 43639 = test: Microtitre plate assay, IC90 determination, BSU 43639; type: cell-based, Bacillus subtilis; conditions: 90% inhibitory concentration for bacterial growth, strain BSU 43639, 24 hours at 37° C.; for IC90: Bacillus subtilis, read-out: IC90 (μg/ml) BSU 43639
Description: (§1) Stocks (0.5 ml/tube) were stored at -70° C. until use. Bacteria titrations were performed in microtiter plates to detect the TCID50, in which the TCID50 represents the dilution that gives rise to bacterial growth in 50% of inoculated cultures. In general, an inoculum level of approximately 100 TCID50 was used for susceptibility testing. […] Serial five-fold dilutions (45 μl in 180 μl) were made directly in the microtiter plates from column 2 to reach column 11. Untreated control samples with (column 1) and without (column 12) inoculum were included in each microtiter plate. Depending on the bacteria type, approximately 10 to 60 CFU per well of bacteria inoculum (100 TCID50), in a volume of 100 μl in 2.8× Mueller-Hinton broth medium, was added to the rows […]. The same volume of broth medium without inoculum was added to column 12 in row A to H. The cultures were incubated at 37° C. for 24 hours under a normal atmosphere (incubator with open air valve and continuous ventilation). At the end of incubation, one day after inoculation, the bacterial growth was quantitated fluorometrically. Therefore resazurin (0.6 mg/ml) was added in a volume of 20 μl to all wells 3 hours after inoculation, and the plates were re-incubated overnight. A change in colour from blue to pink indicated the growth of bacteria. The fluorescence was read in a computer-controlled fluorometer (Cytofluor Biosearch) at an excitation wavelength of 530 nm and an emission wavelength of 590 nm. The % growth inhibition achieved by the compounds was calculated according to standard methods. The IC90 (expressed in μg/ml) was defined as the 90% inhibitory concentration for bacterial growth.

ECO 25922 = test: Microtitre plate assay, IC90 determination, ECO 25922; type: cell-based, E. coli; conditions: 90% inhibitory concentration for bacterial growth, strain ECO 25922, 24 hours at 37° C.; for IC90: Escherichia coli, read-out: IC90 (μg/ml) ECO 25922
Description: as §1

EFA 14506 = test: Microtitre plate assay, IC90 determination, EFA 14506; type: cell-based, E. faecalis; conditions: 90% inhibitory concentration for bacterial growth, strain EFA 14506, 24 hours at 37° C.
Description: as §1

EFA 29212 = test: Microtitre plate assay, IC90 determination, EFA 29212; type: cell-based, E. faecalis; conditions: 90% inhibitory concentration for bacterial growth, strain EFA 29212, 24 hours at 37° C.; for IC90: Enterococcus faecalis, read-out: IC90 (μg/ml) EFA 29212
Description: as §1

LMO 49594 = test: Microtitre plate assay, IC90 determination, LMO 49594; type: cell-based, Listeria monocytogenes; conditions: 90% inhibitory concentration for bacterial growth, strain LMO 49594, 24 hours at 37° C.; for IC90: Listeria monocytogenes, read-out: IC90 (μg/ml) LMO 49594
Description: as §1

PAE 27853 = test: Microtitre plate assay, IC90 determination, PAE 27853; type: cell-based, Pseudomonas aeruginosa; conditions: 90% inhibitory concentration for bacterial growth, strain PAE 27853, 24 hours at 37° C.; for IC90: Pseudomonas aeruginosa, read-out: IC90 (μg/ml) PAE 27853
Description: as §1

SMU 33402 = test: Microtitre plate assay, IC90 determination, SMU 33402; type: cell-based, S. mutans; conditions: 90% inhibitory concentration for bacterial growth, strain SMU 33402, 24 hours at 37° C.; for IC90: Streptococcus mutans, read-out: IC90 (μg/ml) SMU 33402
Description: as §1

SPN 6305 = test: Microtitre plate assay, IC90 determination, SPN 6305; type: cell-based, S. pneumoniae; conditions: 90% inhibitory concentration for bacterial growth, strain SPN 6305, 24 hours at 37° C.
Description: as §1

SPY 8668 = test: Microtitre plate assay, IC90 determination, SPY 8668; type: cell-based, S. pyogens; conditions: 90% inhibitory concentration for bacterial growth, strain SPY 8668, 24 hours at 37° C.
Description: as §1

STA 25923 = test: Microtitre plate assay, IC90 determination, STA 25923; type: cell-based, S. aureus; conditions: 90% inhibitory concentration for bacterial growth, strain STA 25923, 24 hours at 37° C.; for IC90: Staphylococcus aureus, read-out: IC90 (μg/ml) STA 25923
Description: as §1

STA 29213 = test: Microtitre plate assay, IC90 determination, STA 29213; type: cell-based, S. aureus; conditions: 90% inhibitory concentration for bacterial growth, strain STA 29213, 24 hours at 37° C.; for IC90: Staphylococcus aureus, read-out: IC90 (μg/ml) STA 29213
Description: as §1

STA RMETH = test: Microtitre plate assay, IC90 determination, STA RMETH; type: cell-based, S. aureus; conditions: Staphylococcus aureus; 90% inhibitory concentration for bacterial growth; strain STA RMETH; 24 hours at 37° C.; read-out: IC90 (μg/ml) STA RMETH
Description: as §1

STA 43300 = test: Microtitre plate assay, IC90 determination, STA 43300; type: cell-based, S. aureus; conditions: Staphylococcus aureus; 90% inhibitory concentration for bacterial growth; strain STA 43300; 24 hours at 37° C.; read-out: IC90 (μg/ml) STA 43300
Description: as §1, with “Therefore resazurin (0.6 mg/ml) was added in a volume of 20 μl to all wells 3 hours after inoculation, and the plates were re-incubated overnight. A change in colour from blue to pink indicated the growth of bacteria.” left out, “The IC90 (expressed in μg/ml) was defined as the 90% inhibitory concentration for bacterial growth.” left out

SMILES: COc1nc2ccc(Br)cc2cc1C(c1ccccc1)N(CCN(C)C)Cc1ccccc1 (centres unmarked) [Compound 21]
- M. tuberculosis pIC50 [1]: 5.1
- M. smegmatis pIC50 (M. Smegmatis ATCC607): 5.8
- IC90 (μg/ml) BSU 43639 (BSU 43639): 10.1 µg/mL (≈ 20 µM)
- IC90 (μg/ml) ECO 25922 (ECO 25922): 12.7 µg/mL (≈ 25.2 µM)
- IC90 (μg/ml) EFA 14506 (EFA 14506): 10.1 µg/mL (≈ 20 µM)
- IC90 (μg/ml) EFA 29212 (EFA 29212): 12.7 µg/mL (≈ 25.2 µM)
- IC90 (μg/ml) LMO 49594 (LMO 49594): 12.7 µg/mL (≈ 25.2 µM)
- IC90 (μg/ml) PAE 27853 (PAE 27853): 12.7 µg/mL (≈ 25.2 µM)
- IC90 (μg/ml) SMU 33402 (SMU 33402): 10.1 µg/mL (≈ 20 µM)
- IC90 (μg/ml) SPN 6305 (SPN 6305): 12.7 µg/mL (≈ 25.2 µM)
- IC90 (μg/ml) SPY 8668 (SPY 8668): 10.1 µg/mL (≈ 20 µM)
- IC90 (μg/ml) STA 25923 (STA 25923): 11.3 µg/mL (≈ 22.4 µM)
- IC90 (μg/ml) STA 29213 (STA 29213): 10.1 µg/mL (≈ 20 µM)

SMILES: COc1nc2ccc(Br)cc2cc1C(c1ccccc1F)N(CCN(C)C)Cc1ccccc1 (centres unmarked) [Compound 22]
- IC50 (M. Smegmatis ATCC607): 1580 nM
- IC90 (BSU 43639): 41.5 µg/mL (≈ 79.4 µM)
- IC90 (ECO 25922): 52.2 µg/mL (≈ 99.9 µM)
- IC90 (EFA 14506; Enterococcus faecalis, read-out: IC90 (μg/ml) EFA 14506): 41.5 µg/mL (≈ 79.4 µM)
- IC90 (EFA 29212): 10.4 µg/mL (≈ 19.9 µM)
- IC90 (LMO 49594): 8.3 µg/mL (≈ 15.9 µM)
- IC90 (PAE 27853): 13.1 µg/mL (≈ 25.1 µM)
- IC90 (STA 25923): 8.3 µg/mL (≈ 15.9 µM)
- IC90 (STA 29213): 10.4 µg/mL (≈ 19.9 µM)

SMILES: Cc1ccc2nc(-c3ccccc3)c(C(c3ccccc3)N(CC(=O)N3CCCCC3)Cc3ccccc3)cc2c1 (centres unmarked) [Compound 66]
- IC50 ([1]; Mycobacterium tuberculosis, 168 h, read-out: M. tuberculosis pIC50 (converted)): 39800 nM
- IC50 (M. Smegmatis ATCC607): 2510 nM
- IC90 (ECO 25922): 13.6 µg/mL (≈ 25.2 µM)
- melting point: 78 °C

- melting point: 152 °C
SMILES: COc1nc2ccc(Br)cc2cc1C(c1ccccc1)N(CC(=O)N1CCN(C)CC1)Cc1ccccc1 (centres unmarked) [Compound 104]
- IC50 (M. Smegmatis ATCC607): 1580 nM
- IC90 (BSU 43639): 12.8 µg/mL (≈ 22.3 µM)
- IC90 (ECO 25922): 14.4 µg/mL (≈ 25.1 µM)
- IC90 (PAE 27853): 14.4 µg/mL (≈ 25.1 µM)
- IC90 (SMU 33402): 11.4 µg/mL (≈ 19.9 µM)
- IC90 (SPN 6305; Streptococcus pneumoniae, read-out: IC90 (μg/ml) SPN 6305): 14.4 µg/mL (≈ 25.1 µM)
- IC90 (SPY 8668; read-out: IC90 (μg/ml) SPY 8668): 11.4 µg/mL (≈ 19.9 µM)
- IC90 (STA 25923): 12.8 µg/mL (≈ 22.3 µM)
- IC90 (STA 29213): 11.4 µg/mL (≈ 19.9 µM)
- IC90 (STA RMETH): 12.8 µg/mL (≈ 22.3 µM)

SMILES: Cc1ccc2nc(-c3ccccc3)c(C(c3ccccc3)N(CC(=O)N3CCN(C)CC3)Cc3ccccc3)cc2c1 (centres unmarked) [Compound 72]
- IC50 (M. Smegmatis ATCC607): 1580 nM
- IC90 (BSU 43639): 8.8 µg/mL (≈ 15.9 µM)
- IC90 (ECO 25922): 55.5 µg/mL (≈ 100 µM)
- IC90 (LMO 49594): 11.1 µg/mL (≈ 20 µM)
- IC90 (SMU 33402): 13.9 µg/mL (≈ 25.1 µM)
- IC90 (STA 43300): 11.1 µg/mL (≈ 20 µM)
- IC90 (STA 25923): 11.1 µg/mL (≈ 20 µM)
- IC90 (STA 29213): 11.1 µg/mL (≈ 20 µM)

SMILES: COc1nc2ccc(Br)cc2cc1C(c1ccccc1)N(CC(=O)N1CCN(C)CC1)Cc1cccc2ncccc12 (centres unmarked) [Compound 114]
- IC50 (M. Smegmatis ATCC607): 20000 nM
- IC90 (ECO 25922): 62.5 µg/mL (≈ 100 µM)
- IC90 (EFA 29212): 12.5 µg/mL (≈ 20 µM)
- IC90 (LMO 49594): 49.6 µg/mL (≈ 79.4 µM)
- IC90 (SMU 33402): 15.7 µg/mL (≈ 25.1 µM)
- IC90 (STA 43300): 12.5 µg/mL (≈ 20 µM)
- IC90 (STA 29213): 12.5 µg/mL (≈ 20 µM)

SMILES: CC(C)N(C)C(=O)CN(Cc1ccccc1)C(c1cccnc1)c1cc2ccccc2nc1-c1ccccc1 (centres unmarked) [Compound 34]
- M. smegmatis pIC50 (M. Smegmatis ATCC607): 5.8
- IC90 (μg/ml) STA 29213 (STA 29213): 51.5 µg/mL (≈ 100 µM)

SMILES: Cc1ccc2nc(-c3ccccc3)c(C(c3ccccc3)N(CC(=O)NN3CCN(C)CC3)Cc3ccccc3)cc2c1 (centres unmarked) [Compound 69]
- IC50 (M. Smegmatis ATCC607): 1580 nM
- IC90 (STA 29213): 9 µg/mL (≈ 15.8 µM)
